Converted amounts (≈) assume the structure as drawn. Read-outs that look alike come from different tables or passages of the source.
Legend:
S. aureus (MCR) = assay: microbe, parasite or virus in culture; assay type: cell-based; details: for Minimal Inhibitory Concentration (MIC), S. aureus (MCR): multiple values = two or more tests; for MIC: Staphylococcus aureus, read-out: Minimal Inhibitory Concentration (MIC), S. aureus (MCR), multiple values = two or more tests
B. subtilis = assay: microbe, parasite or virus in culture; assay type: cell-based; details: multiple values = two or more tests; for MIC: Bacillus subtilis, read-out: Minimal Inhibitory Concentration (MIC), B. subtilis
NAD synthetase = NAD synthetase (Bacillus subtilis, UniProt P08164); assay: NAD synthetase coupled enzyme assay; assay type: biochemical; details: NAD synthetase 2.0 μg/mL; 0.1 mM NaAD; 0.2 mM ATP; pH 8.5
Excerpt: This Example illustrates the NAD synthetase enzyme inhibiting activity of some compounds of the present invention. [drawing 48] The coupled assay—production of NAD was monitored through conversion to NADH by alcohol dehydrogenase. [NADH] was monitored by 2 parallel methods: the change in absorbance at 340 nm, and fluorescence at 460 nm (excitation 320 nm). […] Controls were included for determining inhibitor background, precipitation, and ADH inhibition.

[1] = tested on: rabbit primary renal cells (RPRC); assay: Cytotoxicity in rabbit primary renal cells (annexin V / PI flow cytometry); assay type: cell-based; details: 24 hr, mean ± SEM; for % CELLULAR NECROSIS (RPRC): at 300 μM; for % APOPTOSIS (RPRC): at peak effect (30 μM)
Method: Cytotoxicity in Rabbit Primary Renal Cells
Isolation of Proximal Tubules and Culture Conditions
Rabbit renal proximal tubules were isolated using the iron oxide perfusion method and grown in 35-mm tissue culture dishes under improved conditions. The cell culture medium was a 1:1 mixture of DMEM/Ham's F-12 (without D-glucose, phenol red, or sodium pyruvate) supplemented with 15 mM HEPES buffer, 2.5 mM L-gluatmine, 1 μM pyridoxine HCL, 15 mM sodium bicarbonate, and 6 mM lactate. Hydrocortisone (50 nM), selenium (5 ng/mL), human transferrin (5 μg/mL), bovine insulin (10 nM) and L-ascorbic acid-2-phosphate (50 μM) were added to fresh culture medium immediately prior to daily media change.
All numbered compounds were diluted in methanol and the final concentration of methanol in RPRC was less then 0.1% (v/v).
Measurement of RPRC Death
Cell death was monitored in RPRC by assessment of both annexin V and PI staining using flow cytometry. Briefly, RPRC were exposed to the indicated concentrations of compounds for 24 hr. Media was removed and RPRC washed twice with phosphate-buffered saline (PBS) and incubated in a binding buffer (10 mM HEPES, 140 mM NaCL, 5 mM KCL, 1 mM MgCl2, 1.8 mM CaCl2, pH=7.4) containing annexin V-FITC (1 μmol) and PI (25 μg/mL). After a 10 min incubation, RPRC were washed three times in the binding buffer and were released from the monolayers by gentle scrapping with a rubber policeman. Annexin V and PI staining were measured using a BectonDickson FacsCalibur flow cytometer (San Jose, Calif.). An equal number of cells (10,000) were counted for sample and apoptotic cells were defined as those that stained positive for annexin V-FITC only. RPRC undergoing necrotic cell death stained for PI only.
RPRC isolated from one rabbit represented one experiment (n=1). Data were analyzed and are reported as means±standard error of the mean of at least 3 separate experiments.

[2] = tested on: Bacillus anthracis Sterne 34F2; assay: microbe, parasite or virus in culture; assay type: cell-based; details: for MIC: Bacillus anthracis

NAD synthetase, sequence (P08164 whole entry): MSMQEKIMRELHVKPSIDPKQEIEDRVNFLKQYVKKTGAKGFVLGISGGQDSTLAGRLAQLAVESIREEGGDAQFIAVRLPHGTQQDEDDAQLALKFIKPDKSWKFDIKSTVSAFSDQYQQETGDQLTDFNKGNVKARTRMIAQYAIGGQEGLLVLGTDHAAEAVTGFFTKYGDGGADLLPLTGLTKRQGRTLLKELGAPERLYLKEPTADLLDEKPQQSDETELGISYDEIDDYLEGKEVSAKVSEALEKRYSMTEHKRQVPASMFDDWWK

| SMILES | IC50 (NAD synthetase) | also measured |
| --- | --- | --- |
| C[N+](C)(C)C(Cc1ccccc1)C(=O)OCCCCCCCCOc1ccc(OCc2cccc(Cl)c2)cc1.[I-] (stereo not shown) [Compound 1391] | 11.5 µM | Minimal Inhibitory Concentration (MIC), S. aureus (MCR) (S. aureus (MCR)): <1.56 µg/mL; Minimal Inhibitory Concentration (MIC), B. subtilis (B. subtilis): <3.13 µg/mL |
| C[N+](C)(C)C(Cc1c[nH]c2ccccc12)C(=O)OCCCCCCCn1ccc2cc(OCc3ccccc3)ccc21 (stereo not shown) [Compound 1505] | 6.6 µM | MIC (S. aureus (MCR)): < 0.78 µg/mL; MIC (B. subtilis): < 0.78 µg/mL |
| C[N+](C)(C)C.[I-] [TMAI, tetramethylammonium iodide, reference compound] | – | % CELLULAR NECROSIS (RPRC) [1]: 2 ± 1%; % APOPTOSIS (RPRC) [1]: 5 ± 1% |
| O=C(O)c1cn(C2CC2)c2cc(N3CCNCC3)c(F)cc2c1=O [Ciprofloxacin, reference compound] | – | MIC ([2]; STERNE34F2, read-out: approximate MIC, B. anthracis (first value)): 0.25 µg/mL (≈ 0.754 µM); MIC ([2]; STERNE34F2, read-out: approximate MIC, B. anthracis (second value)): 0.125 µg/mL (≈ 0.377 µM); % CELLULAR NECROSIS (RPRC) [1]: 4 ± 1%; % APOPTOSIS (RPRC) [1]: 9 ± 3% |
| CC1(C)S[C@@H]2[C@H](NC(=O)[C@H](N)c3ccccc3)C(=O)N2[C@H]1C(=O)O [Ampicillin, reference compound] | – | MIC (S. aureus (MCR)): > 50 µg/mL |
| C[N+](C)(C)C(Cc1ccccc1)C(=O)OCCCCCCCCOc1ccc(OCc2ccccc2Cl)cc1 (stereo not shown) [Compound 1390] | 14.2 µM | – |
| C[N+](C)(C)c1ccc(CC(=O)NCCCCCCCCOc2ccc(OC(=O)c3cc(Cl)cc(Cl)c3Cl)cc2)cc1 [Compound 1644] | 23.9 µM | – |
| N=C(N)N[C@H](COCCCCCCCCOc1ccc(OCc2ccccc2)cc1)Cc1ccccc1 [Compound 1680] | 10.1 µM | – |
| CN(C)c1ccc(C(=O)Oc2ccc(OCCCCCCCCOC(=O)C(Cc3ccccc3)[N+](C)(C)C)cc2)cc1 (stereo not shown) [Compound 1484] | 14.8 µM | MIC (S. aureus (MCR)): < 0.78 µg/mL; MIC (B. subtilis): < 3.13 µg/mL |
| COc1ccccc1COc1ccc(OCCCCCCCCOC(=O)C(Cc2ccccc2)[N+](C)(C)C)cc1 (stereo not shown) [Compound 1387] | 20.5 µM | – |
| COc1ccccc1COc1ccc(OCCCCCCCCOC(=O)Cc2ccc([N+](C)(C)C)cc2)cc1 [Compound 1393] | 36.7 µM | – |
| C[N+](C)(C)C(Cc1ccccc1)C(=O)OCCCCCCCCOc1ccc(OC(=O)c2ccc(C#N)cc2)cc1 (stereo not shown) [Compound 1479] | 18.6 µM | – |
| C[n+]1cccc(C(=O)NCCCCCCCCOc2ccc(OCc3cccc(Cl)c3)cc2)c1 [Compound 1422] | 27.9 µM | – |
| Cl.N=C(N)N[C@H](COCCCCCCCCOc1ccc(OCc2ccccc2)cc1)Cc1ccccc1 [Compound 1685] | 9.9 µM | approximate MIC, B. anthracis (first value) ([2]; first value of cell, standard broth dilution assay using bacterial growth media (order assumed)): 4; 4 μg/mL; approximate MIC, B. anthracis (second value) ([2]; second value of cell, visual turbidity, bacteria cultured in mammalian cell culture media (order assumed)): 4; 4 μg/mL; Minimal Inhibitory Concentration (MIC), S. aureus (MCR) (S. aureus (MCR)): <0.78 µg/mL; Minimal Inhibitory Concentration (MIC), B. subtilis (B. subtilis): <3.13 µg/mL |
| C[N+](C)(C)C(Cc1ccccc1)C(=O)NCCCCCCCCOc1ccc(OC(=O)c2ccc(Cl)cc2Cl)cc1 (stereo not shown) [Compound 1604] | 21.1 µM | – |
| C[n+]1cccc(C(=O)NCCCCCCCCOc2ccc(OC(=O)c3c(Cl)cccc3Cl)cc2)c1 [Compound 1664] | 19.9 µM | – |
| C[N+](C)(C)c1ccc(CCCC(=O)OCCCCCCCCOc2ccc(OCc3ccccc3)cc2)cc1 [Compound 1264] | 38.1 µM | – |
| C[N+](C)(C)C(Cc1ccccc1)C(=O)NCCCCCCCCOc1ccc(OC(=O)c2c(Cl)cc(Cl)cc2Cl)cc1 (stereo not shown) [Compound 1616] | 38.5 µM | – |
| C[n+]1cccc(C(=O)NCCCCCCCCOc2ccc(OC(=O)c3cccc(Cl)c3Cl)cc2)c1 [Compound 1661] | 23.7 µM | – |
| C[N+](C)(C)C(Cc1ccccc1)C(=O)OCCCCCCCn1ccc2cc(OCc3ccccc3)ccc21 (stereo not shown) [Compound 1408] | 30.5 µM | – |
| C[N+](C)(C)c1ccc(CC(=O)NCCCCCCCCOc2ccc(OC(=O)c3cc(Cl)ccc3Cl)cc2)cc1 [Compound 1634] | 21.2 µM | – |
| C[N+](C)(C)c1ccc(CC(=O)OCCCCCCCCCOc2ccc(OCc3ccccc3)cc2)cc1 [Compound 1321] | 22 µM | – |
| CC[N+]1([C@@H](Cc2ccccc2)C(=O)OCCCCCCCCOc2ccc(OCc3ccccc3)cc2)CCCC1 [Compound 1442] | 21.4 µM | – |
